The supplement of paper PMC10307832

Key:
Test in all cases: relative viability (nuclei count vs DMSO), 5 days (fraction); higher = more cells survive
[1] = compound: C1/C(=C\C2=CC=CS2)/C(=O)/C(=C/C3=CC=CS3)/C1 + C[C@@H](Oc1cc(-c2cnn(C3CCNCC3)c2)cnc1N)c1c(Cl)ccc(F)c1Cl [Crizotinib] (partner 1 µM)
How it was run: (§1)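 Lung cancer cell lines were seeded in 1536-well plates and dosed by pin tool the next day, with either a single drug or a fixed anchor-drug dose combined with five library-drug doses (not always all listed) spaced in √10 steps. Five days later, one step fixed the cells and stained their nuclei (final 0.05% Triton X-100, 1% formaldehyde, 1 ug/ml Hoechst), and nuclei were counted on 4× images. Relative viability is the nuclei count in treated wells divided by the count in vehicle wells, and each value is the median of duplicate plates.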

[2] = compound: C1=CC(=CC=C1C2=CC(=C(S2)NC(=O)N)C(=O)N)F [TPCA-1] + CS(=O)(=O)CCNCc1ccc(-c2ccc3ncnc(Nc4ccc(OCc5cccc(F)c5)c(Cl)c4)c3c2)o1 [Lapatinib] (partner 2 µM)
How it was run: as §1

[3] = compound: C[C@]12O[C@H](C[C@]1(O)CO)n1c3ccccc3c3c4c(c5c6ccccc6n2c5c31)CNC4=O [Lestaurtinib] + C[C@]1(O)C[C@@H](c2nc(-c3ccc4ccc(-c5ccccc5)nc4c3)c3c(N)nccn32)C1 [Linsitinib] (partner 1 µM)
How it was run: as §1

[4] = compound: C[C@]12O[C@H](C[C@]1(O)CO)n1c3ccccc3c3c4c(c5c6ccccc6n2c5c31)CNC4=O [Lestaurtinib] + Cc1cc(Nc2cc(N3CCN(C)CC3)nc(Sc3ccc(NC(=O)C4CC4)cc3)n2)n[nH]1 [Tozasertib] (partner 0.1 µM)
How it was run: as §1

| Cell Line | relative viability ([1]; first compound 0.2 µM) | relative viability ([1]; first compound 0.6325 µM) | relative viability ([1]; first compound 2 µM) | relative viability ([1]; first compound 6.325 µM) | relative viability ([1]; first compound 20 µM) | relative viability ([2]; first compound 0.04 µM) | relative viability ([2]; first compound 0.1265 µM) | relative viability ([2]; first compound 0.4 µM) | relative viability ([2]; first compound 1.265 µM) | relative viability ([2]; first compound 4 µM) | relative viability ([3]; first compound 0.005 µM) | relative viability ([3]; first compound 0.01581 µM) | relative viability ([3]; first compound 0.05 µM) | relative viability ([3]; first compound 0.1581 µM) | relative viability ([3]; first compound 0.5 µM) | relative viability ([4]; first compound 0.005 µM) | relative viability ([4]; first compound 0.01581 µM) | relative viability ([4]; first compound 0.05 µM) | relative viability ([4]; first compound 0.1581 µM) | relative viability ([4]; first compound 0.5 µM) |
| --- | --- | --- | --- | --- | --- | --- | --- | --- | --- | --- | --- | --- | --- | --- | --- | --- | --- | --- | --- | --- |
| NCI-H838 | 0.896 | 0.889 | 0.807 | 0.784 | 0.858 | 1.14 | 0.864 | 1.12 | 0.598 | 0.565 | 1.04 | 1.01 | 0.759 | 0.507 | 0.146 | 0.275 | 0.238 | 0.275 | 0.2 | 0.171 |
| NCI-H1355 | 1.19 | 1.05 | 1.03 | 0.943 | 1.08 | 1.15 | 0.879 | 0.956 | 0.818 | 0.719 | 0.795 | 0.838 | 0.546 | 0.451 | 0.302 | 0.51 | 0.52 | 0.377 | 0.441 | 0.287 |
| NCI-H1437 | 0.954 | 0.886 | 0.828 | 0.902 | 0.824 | 0.888 | 0.764 | 0.85 | 0.742 | 0.604 | 1.02 | 1.24 | 0.739 | 0.775 | 0.302 | 0.451 | 0.438 | 0.373 | 0.309 | 0.408 |
| NCI-H1651 | 0.863 | 0.876 | 0.893 | 0.816 | 0.855 | 1.02 | 0.746 | 0.951 | 0.848 | 0.8 | 0.985 | 1.06 | 0.969 | 0.695 | 0.438 | 0.706 | 0.756 | 0.771 | 0.694 | 0.492 |
| NCI-H1666 | 1.23 | 1.19 | 1.09 | 0.643 | 0.974 | 0.539 | 0.569 | 0.865 | 0.707 | 0.631 | 0.926 | 1.04 | 0.847 | 0.475 | 0.501 | 0.656 | 0.663 | 0.686 | 0.531 | 0.373 |
| NCI-H1734 | 0.617 | 0.78 | 0.631 | 0.606 | 0.731 | 1.21 | 0.946 | 1.13 | 1.02 | 0.623 | 0.95 | 0.849 | 0.477 | 0.545 | 0.342 | 0.289 | 0.153 | 0.247 | 0.214 | 0.178 |
| NCI-H1755 | 0.867 | 0.896 | 0.822 | 0.704 | 0.831 | 0.991 | 0.984 | 1.02 | 0.898 | 0.689 | 1.02 | 1.05 | 0.776 | 0.429 | 0.215 | 0.607 | 0.693 | 0.589 | 0.461 | 0.372 |
| NCI-H1915 | 0.86 | 0.951 | 0.912 | 0.841 | 0.893 | 1.06 | 0.984 | 1.03 | 0.875 | 0.813 | 1.21 | 1.09 | 1.11 | 0.797 | 0.565 | 0.498 | 0.532 | 0.363 | 0.49 | 0.214 |
| NCI-H1944 | 1.18 | 1.12 | 1.09 | 1.01 | 0.977 | 0.999 | 0.68 | 0.838 | 0.7 | 0.682 | 1.14 | 1.14 | 0.717 | 0.555 | 0.634 | 0.262 | 0.276 | 0.234 | 0.236 | 0.201 |
| NCI-H1975 | 0.988 | 0.957 | 1.02 | 0.718 | 0.971 | 0.941 | 0.75 | 0.906 | 0.714 | 0.494 | 1.09 | 0.967 | 0.717 | 0.537 | 0.302 | 0.943 | 1.02 | 0.715 | 0.552 | 0.486 |
| NCI-H1993 | 0.897 | 0.9 | 0.784 | 0.63 | 0.743 | 0.855 |  | 0.735 | 0.765 | 1.11 | 0.702 | 0.673 | 0.713 | 0.698 | 0.573 | 0.636 | 0.545 | 0.57 | 0.54 | 0.529 |
| NCI-H2009 | 1.11 | 1.09 | 1.02 | 0.971 | 1.06 | 1.12 | 0.886 | 0.926 | 0.444 | 0.294 | 1.25 | 1.23 | 1.09 | 1.01 | 0.581 | 0.783 | 0.832 | 0.625 | 0.454 | 0.359 |
| NCI-H2023 | 0.685 | 0.602 | 0.762 | 0.652 | 0.684 | 1.1 | 0.78 | 1.14 | 0.528 | 0.133 | 0.653 | 0.709 | 0.547 | 0.369 | 0.208 | 0.386 | 0.554 | 0.357 | 0.269 | 0.0989 |
| NCI-H2085 | 0.789 | 0.935 | 0.83 | 0.856 | 0.952 | 0.825 | 0.732 | 0.889 | 0.7 | 0.646 | 0.952 | 1.01 | 1.04 | 0.901 | 0.819 | 0.828 | 0.83 | 0.75 | 0.882 | 0.56 |
